Patent EP4389746A2, “P2X3 RECEPTOR ANTAGONISTS” (Recordati Industria Chimica E Farmaceutica SPA, priority 2022, dated 2024)

molecular target: T1, human P2X3 receptor (Homo sapiens, UniProt P56373); assay: Calcium luminescence measurement: human P2X3 receptor activity inhibition (CHO-K1 cells, photoprotein readout, FLEXSTATION); type: cell-based; settings: CHO-K1 cells co-expressing human P2X3 and Ca2+ sensitive photoprotein; agonist α,β-Met-ATP; read-out: h-P2X3 IC50
T1 construct: expressed in transfected cells; host or cells: CHO-K1
T1 sequence (P56373 1-397): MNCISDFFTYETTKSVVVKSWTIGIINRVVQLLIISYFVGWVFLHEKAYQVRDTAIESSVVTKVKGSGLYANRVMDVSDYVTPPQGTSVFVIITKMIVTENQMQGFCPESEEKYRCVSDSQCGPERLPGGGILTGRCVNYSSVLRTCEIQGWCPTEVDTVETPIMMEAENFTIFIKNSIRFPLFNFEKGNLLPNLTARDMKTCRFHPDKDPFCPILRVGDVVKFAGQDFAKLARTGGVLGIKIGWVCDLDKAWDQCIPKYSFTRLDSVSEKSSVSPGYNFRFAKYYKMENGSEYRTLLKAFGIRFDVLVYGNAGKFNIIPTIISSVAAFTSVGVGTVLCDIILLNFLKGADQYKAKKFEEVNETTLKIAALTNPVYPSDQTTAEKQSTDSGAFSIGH
Method: Determination of human P2X3 receptor activity inhibition
The assay for the human purinergic P2RX3 receptor has been adapted to the internal screening instrumentation using the FLEXSTATION as reader and a photoprotein as luminescent readout. The assay consists of CHO-K1 cells recombinantly co-expressing the human P2rx3 receptor and a Ca^2+ sensitive photoprotein. Cells are maintained in DMEM F-12 (1:1) mixture (LONZA cat. n° BE04-687F/U1) supplemented with 9 mL of 100 mM Sodium Pyruvate (LONZA cat. n° BE13-115E), 29 mL of 7.5% Sodium Bicarbonate (LONZA cat. n° BE17-613E), 5.5 mL of 1 M Hepes (LONZA cat. n° BE17-737E), 5 mL of 100X Penicillin/Streptomycin mixture (LONZA cat. n° DE17-602E) and 50 mL of Fetal Bovine Serum (Sigma cat. n° F7524), 1 mg/mL G418 disulfate salt (Sigma cat. n° G8168) and 5 µg/ml Puromycin dihydrochloride (Sigma cat. n° P9620). Standard propagation conditions consist of seeding in a P75 flask twice a week, recovering about 20×10^6 cells, corresponding to about 80% confluency. Cells were seeded into black-walled clear bottom 96 well plates at a density of 40000 cells/well in a complete medium. After 24 h the culture medium was replaced with 200 µL/well of coelenterazine in Tyrode's buffer (Standard Tyrode's buffer: in house solution, 130 mM NaCl, 5 mM KCl, 2 mM CaCl2, 5 mM NaHCO3, 1 mM MgCl2, 20 mM HEPES, pH 7.4). Coelenterazine was purchased from BIOSYNTH (cat. n° C-7001). 10 mM stock solution was prepared in DMSO and glutathione and stored at -20° C. The plates were incubated for 4 hours at 37°C, and injected with 10 µL/well of test compounds at 25X concentration in Tyrode's buffer. After 4 minutes a second injection of 50 µL/well of 5X α,β-Met-ATP in Tyrode's buffer (α,β-Met-ATP: from Tocris (cat. n° 3209), was dissolved at 100 mM in water and stored in aliquots at -20°C) was performed and the signal of the emitted luminescence was recorded by FLEXSTATION III (Molecular Devices). […]
The inhibition curves of the tested compounds at cloned P2X3 receptor were determined by nonlinear regression analysis using software Prism 5.0 (Graphpad, San Diego, CA). The IC50 values and pseudo-Hill slope coefficients were estimated by the program.

Compound	IC50 [nM]
3-tert-Butyl-6-[(4-chlorophenyl)methyl] -8-[4-(hydroxymethyl)piperidin-1-yl]pyrido[2,3-e][1,2,4]triazolo[4,3-c]pyrimidin-5(6H)-one [Example 41]	9.5
CC(C)[C@H]1CN2C(=O)N(Cc3ccc(Cl)cc3)c3cc(N4CCOCC4)cnc3C2=N1 (single isomer, unassigned) [Example 10]	1080
CC(C)[C@@H]1CN2C(=O)N(Cc3ccc(Cl)cc3)c3cc(N4CCOCC4)cnc3C2=N1 (single isomer, unassigned) [Example 11]	113
CC(C)C1C(=O)N=C2c3ncc(N4CCOCC4)cc3N(Cc3ccc(Cl)cc3)C(=O)N21 (single isomer, unassigned) [Example 23, (R or S)-6-[(4-Chlorophenyl)methyl]-8-(morpholin-4-yl)-3-(propan-2-yl)imidazo[1,2-c]pyrido[2,3-e]pyrimidine-2,5(3H,6H)-dione]	64.7
CC(C)C1C(=O)N=C2c3ncc(N4CCOCC4)cc3N(Cc3ccc(Cl)cc3)C(=O)N21 (single isomer, unassigned) [Example 24, (S or R)-6-[(4-Chlorophenyl)methyl]-8-(morpholin-4-yl)-3-(propan-2-yl)imidazo[1,2-c]pyrido[2,3-e]pyrimidine-2,5(3H,6H)-dione]	56.2
CC(C)C1CN=C2c3ncc(N4CCOCC4)cc3N(Cc3ccc(Cl)cc3)C(=O)N21 (centres unmarked) [Example 1, 6-(4-Chlorobenzyl)-8-(morpholin-4-yl)-3-(propan-2-yl)-2,6-dihydroimidazo[1,2-c]pyrido[2,3-e]pyrimidin-5(3H)-one]	703
CC1(C)CN2C(=O)N(Cc3ccc(Cl)cc3)c3cc(N4CCOCC4)cnc3C2=N1 [Example 2, 6-(4-Chlorobenzyl)-2,2-dimethyl-8-(morpholin-4-yl)-2,6-dihydroimidazo[1,2-c]pyrido[2,3-e]pyrimidin-5(3H)-one]	1010
COc1cc(CN2C(=O)N3CC(C(C)(C)C)N=C3c3ncc(N4CCOCC4)cc32)cc(OC)c1 (centres unmarked) [Example 3, 2-tert-Butyl-6-(3,5-dimethoxybenzyl)-8-(morpholin-4-yl)-2,6-dihydroimidazo[1,2-c]pyrido[2,3-e]pyrimidin-5(3H)-one]	27.3
CC(C)(C)C1CN2C(=O)N(Cc3ccc(Cl)cc3)c3cc(N4CCOCC4)cnc3C2=N1 (centres unmarked) [Example 4, 2-tert-Butyl-6-(4-chlorobenzyl)-8-(morpholin-4-yl)-2,6-dihydroimidazo[1,2-c]pyrido[2,3-e]pyrimidin-5(3H)-one]	181
CC(C)C1CN2C(=O)N(Cc3ccc(Cl)cc3)c3cc(N4CCC(N)CC4)cnc3C2=N1 (centres unmarked) [Example 7, 8-(4-Aminopiperidin-1-yl)-6-[(4-chlorophenyl)methyl]-2-(propan-2-yl)-2,6-dihydroimidazo[1,2-c]pyrido[2,3-e]pyrimidin-5(3H)-one]	642
CC(C)C1CN2C(=O)N(Cc3ccc(Cl)cc3)c3cc(N4CCNCC4)cnc3C2=N1 (centres unmarked) [Example 8, 6-[(4-Chlorophenyl)methyl]-8-(piperazin-1-yl)-2-(propan-2-yl)-2,6-dihydroimidazo[1,2-c]pyrido[2,3-e]pyrimidin-5(3H)-one]	1380
CC(C)(CO)C1CN2C(=O)N(Cc3ccc(Cl)cc3)c3cc(N4CCOCC4)cnc3C2=N1 (centres unmarked) [Example 12, 6-(4-Chlorobenzyl)-2-(1-hydroxy-2-methylpropan-2-yl)-8-(morpholin-4-yl)-2,6-dihydroimidazo[1,2-c]pyrido[2,3-e]pyrimidin-5(3H)-one]	54
CC(C)C1CN2C(=O)N(Cc3ccc(Cl)cn3)c3cc(N4CCOCC4)cnc3C2=N1 (centres unmarked) [Example 13, 6-[(5-Chloropyridin-2-yl)methyl]-8-(morpholin-4-yl)-2-(propan-2-yl)-2,6-dihydroimidazo[1,2-c]pyrido[2,3-e]pyrimidin-5(3H)-one]	865
COc1ccc(CN2C(=O)N3CC(C(C)C)N=C3c3ncc(N4CCOCC4)cc32)nc1 (centres unmarked) [Example 14, 6-[(5-Methoxypyridin-2-yl)methyl]-8-(morpholin-4-yl)-2-(propan-2-yl)-2,6-dihydroimidazo[1,2-c]pyrido[2,3-e]pyrimidin-5(3H)-one]	822
